Tested on: T1, alcohol oxidase (AOX) from Cerrena unicolor FCL139
T1 construct: native, semi-purified from mycelium (ammonium sulphate, HIC, SEC); octamer stated as typical; no tag
Experiment: acetylacetone assay ([…],5-diacetyl-1,4-dihydrolutidine), Michaelis-Menten non-linear fit
Assay type: biochemical
Settings: semi-purified native enzyme; substrate 1-100 mM; pH and temperature of the kinetics not given

**Q.** `COc1ccc(CO)cc1OC` [Veratryl alcohol] was tested. Which Km did it give?
**A.** Its Km is 31 ± 4 mM.

**Q.** With `CO` [Methanol] as the compound, how does the Km read?
**A.** Its Km is 13 ± 1 mM.

**Q.** `OC[C@H](O)C(O)[C@@H](O)CO` [L-arabinitol] was tested. Which Km did it give?
**A.** Its Km is 37 ± 3 mM.

— paper PMC11593814, “Novel Basidiomycetous Alcohol Oxidase from Cerrena unicolor—Characterisation, Kinetics, and Proteolytic Modifications” (International Journal of Molecular Sciences, 2024)
